The values that follow come from ChEMBL document CHEMBL5316290, “Targeted Protein Degradation Induced by HEMTACs Based on HSP90” (J Med Chem, 2023).

Series [1] addresses HSP90/Cyclin-dependent kinase 6 (Mus musculus, UniProt P07901+P11499+Q64261). The series can be described thus: HEMTAC activity at HSP90/CDK6 in mouse B16-F10 cells assessed as induction of […] degradation incubated for 24 hrs by Western blot analysis. Format: cell-based.
For the next series, the system named is A-375. The series can be described thus: Cytotoxicity against human A-375 cells assessed as inhibition of cell growth incubated for 72 hrs by CCK-8 assay. Particulars: A-375, 72 h. Format: functional, cell-based.
For series [2], the target named is T1, HSP90/Cyclin-dependent kinase 4 (Mus musculus) (UniProt P30285+P07901+P11499). The series can be described thus: HEMTAC activity at HSP90/CDK4 in mouse B16-F10 cells assessed as induction of CDK4 degradation at 0.5 uM pretreated with proteasome inhibitor, MG132 for 2 hrs followed by compound addition and measured after 24 hrs by Western blot analysis. Format: cell-based. On the technique in general: A western blot detects proteins with antibodies after separation by electrophoresis.

For another series, the system named is MDA-MB-231. The series can be described thus: Cytotoxicity against human MDA-MB-231 cells assessed as inhibition of cell growth incubated for 72 hrs by CCK-8 assay. As to conditions: MDA-MB-231, 72 h. The class given is functional, cell-based. For orientation: Tetrazolium assays rely on reduction of a dye to a coloured formazan, in cell work by metabolically active cells.

Series [3] relates to B16-F10. The series can be described thus: Anticancer activity against mouse B16-F10 cells implanted in C57BL/6J mouse assessed as reduction in tumor growth at 20 to 40 mg/kg, ip administered once daily for 2 weeks and measured every 2 days by vernier caliper method. The class given is functional, organism-based. Particulars: dose 20-40 mg/kg.
Series [4] addresses T1, HSP90/Cyclin-dependent kinase 4 (Mus musculus). The series can be described thus: HEMTAC activity at HSP90/CDK4 in mouse B16-F10 cells assessed as induction of CDK4 degradation at 0.1 uM incubated for 24 hrs in presence of palbociclib by Western blot analysis. The class given is cell-based.
Series [5] concerns B16-F10. The series can be described thus: Induction of cell cycle arrest in mouse B16-F10 cells assessed as accumulation of cells at S phase at 125 nM incubated for 24 hrs by RNase/PI staining based flow cytometry analysis (reference value: 12.45%). The class given is functional. On the technique in general: Flow cytometry measures light scatter and fluorescence of single cells or particles in a stream.

Series [6] deals with B16-F10. The series can be described thus: Induction of apoptosis in mouse B16-F10 cells assessed as early apoptotic cells at 125 nM incubated for 48 hrs by Annexin V-FITC/PI staining based flow cytometry analysis (reference value: 3.42%). Format: functional.
Series [7] concerns the target T1, HSP90/Cyclin-dependent kinase 4 (Mus musculus). The series can be described thus: HEMTAC activity at HSP90/CDK4 in mouse B16-F10 cells assessed as reduction in CDK4 protein level at 0.5 uM incubated for 24 hrs by global proteomics analysis. The class given is cell-based.
The target of series [8] is HSP90/Cyclin-dependent kinase 6 (Mus musculus) (UniProt P07901+Q64261+P11499). The series can be described thus: HEMTAC activity at HSP90/CDK6 in mouse B16-F10 cells assessed as induction of […] degradation by measuring maximal degradation incubated for 24 hrs by Western blot analysis relative to control. Format: cell-based.
Series [9] relates to B16-F10. The series can be described thus: Binding affinity to HSP90/CDK4 in mouse B16-F10 assessed as ternary complex formation at 5 uM incubated for 6 hrs by co-immunoprecipitation assay. The class given is cell-based.
Series [10] is described as follows: Acute toxicity in zebra fish embryos incubated for 72 hrs. Set-up: species or system Danio rerio. Particulars: zebrafish.
Another series concerns HepG2. The series can be described thus: Cytotoxicity against human HepG2 cells assessed as inhibition of cell growth incubated for 72 hrs by CCK-8 assay. The class given is functional, cell-based. Particulars: HepG2, 72 h.
Series [11] deals with B16-F10. The series can be described thus: Binding affinity to HSP90/CDK6 in mouse B16-F10 assessed as ternary complex formation at 5 uM incubated for 6 hrs by co-immunoprecipitation assay. Format: cell-based.
Series [12] concerns the target T1, HSP90/Cyclin-dependent kinase 4 (Mus musculus). The series can be described thus: HEMTAC activity at HSP90/CDK4 in mouse B16-F10 cells assessed as induction of CDK4 degradation by measuring maximal degradation incubated for 24 hrs by Western blot analysis relative to control. Format: cell-based.

Active and inactive are the calls of the source. The rule behind the calls is not given here.

As a reminder, the EC50 is the midpoint of the concentration-response curve. Broadly, the IC50 is the concentration that gives 50% inhibition. The Emax is the maximal effect, on the per cent scale that the assay sets. What is called LC50 is the concentration lethal to half of the exposed cells or organisms. High values mean a less lethal substance, low ones a more lethal substance. With `COc1c(C)cnc(Cn2cc(C#CCCn3cc(CNC(=O)CN4CCN(c5ccc(Nc6ncc7c(C)c(C(C)=O)c(=O)n(C8CCCC8)c7n6)nc5)CC4)nn3)c3c(Cl)nc(N)nc32)c1C`, the EC50 in series [1] was 19 nM. The half-inhibitory concentration (IC50) with A-375 was determined as 126 nM; with MDA-MB-231, 313 nM; with HepG2, 499 nM. Further, the result in series [2] and in [4] was inactive. Moreover, the outcome (in the series on B16-F10 [3]; in [7]; with B16-F10 [9]; in the series with B16-F10 [11]) was Active. Besides, the values for the Activity in the series on B16-F10 [5] and in the series with B16-F10 [6] were 7.58% and 14.42%, respectively. Further, the Emax in [8] stood at 92%; in series [12], 88%. In addition, the LC50 at 72 h in series [10] is over 100000 nM.
